Results on 30 compounds are retold here after US10626112B2, “Heterocyclic sulfonamide derivative and medicine comprising same” (EA PHARMA CO., LTD., priority 2014, dated 2020).

The test concerns the target human TRPA1 (Homo sapiens (Human), UniProt O75762). The test is described as follows: Measurement of TRPA1 antagonist activity (1): intracellular calcium increase. The following applies: 293T cells transfected with human TRPA1 expression plasmid; allylisothiocyanate 20 μM stimulation; intracellular calcium fluorescence; read-out: hTRPA1 IC50. The test is classed as cell-based. The gist of the method:
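HEK293T cells transiently transfected with full-length human TRPA1, loaded with Calcium4 dye in HBSS/20 mM HEPES pH 7.2. Test compound preincubated 10 min, then allylisothiocyanate added at 20 μM final and fluorescence change followed for 5 min. IC50 from sigmoid fit of percent inhibition relative to agonist and buffer controls.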

Structures are written as SMILES.

Chain of human TRPA1 (O75762 whole entry): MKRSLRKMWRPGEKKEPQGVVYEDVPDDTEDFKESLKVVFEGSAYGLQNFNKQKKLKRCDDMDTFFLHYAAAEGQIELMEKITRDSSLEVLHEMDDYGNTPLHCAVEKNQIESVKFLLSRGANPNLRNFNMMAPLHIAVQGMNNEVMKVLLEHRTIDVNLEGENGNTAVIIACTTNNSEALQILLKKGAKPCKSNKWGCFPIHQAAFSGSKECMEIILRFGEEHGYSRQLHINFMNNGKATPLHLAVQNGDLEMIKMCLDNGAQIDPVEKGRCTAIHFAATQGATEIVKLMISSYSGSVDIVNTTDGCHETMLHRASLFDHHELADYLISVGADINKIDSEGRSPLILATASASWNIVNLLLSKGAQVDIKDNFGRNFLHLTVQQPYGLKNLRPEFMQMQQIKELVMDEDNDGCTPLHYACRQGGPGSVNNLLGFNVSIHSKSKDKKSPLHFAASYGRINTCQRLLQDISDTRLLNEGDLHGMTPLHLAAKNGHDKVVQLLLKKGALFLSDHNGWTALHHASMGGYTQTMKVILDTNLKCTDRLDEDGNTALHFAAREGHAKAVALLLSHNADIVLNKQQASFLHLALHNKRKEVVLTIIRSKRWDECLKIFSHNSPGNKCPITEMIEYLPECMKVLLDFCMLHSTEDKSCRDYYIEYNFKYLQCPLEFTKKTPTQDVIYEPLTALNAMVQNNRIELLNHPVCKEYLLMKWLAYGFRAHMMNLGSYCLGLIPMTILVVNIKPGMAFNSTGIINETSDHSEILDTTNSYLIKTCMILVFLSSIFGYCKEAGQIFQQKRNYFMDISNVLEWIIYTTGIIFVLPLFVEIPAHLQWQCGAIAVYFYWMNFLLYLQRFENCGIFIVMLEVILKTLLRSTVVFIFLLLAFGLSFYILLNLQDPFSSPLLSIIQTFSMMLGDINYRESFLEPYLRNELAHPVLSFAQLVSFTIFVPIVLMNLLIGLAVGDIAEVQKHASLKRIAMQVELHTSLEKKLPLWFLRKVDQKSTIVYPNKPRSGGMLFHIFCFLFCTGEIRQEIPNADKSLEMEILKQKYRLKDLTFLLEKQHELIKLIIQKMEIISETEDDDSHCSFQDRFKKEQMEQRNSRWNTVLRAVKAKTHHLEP

Turning to `O=C(NCc1cc(OC(F)(F)F)ccc1F)[C@@H]1CCCN1S(=O)(=O)c1cc2cc(F)ccc2o1` [Example 71, (2S)-1-(5-fluorobenzofuran-2-yl)sulfonyl-N-[[2-fluoro-5-(trifluoromethoxy)phenyl]methyl]-pyrrolidine-2-carboxamide], the IC50 is 3.2 nM.

With `C[C@H](NS(=O)(=O)c1cc2ccccc2o1)C(=O)NCc1cc(C(F)(F)F)ccc1Cl` [Example 72, (2S)-2-(benzofuran-2-ylsulfonylamino)-N-[[2-chloro-5-(trifluoromethyl)phenyl]methyl]-propanamide], the IC50 turned out to be 350 nM. The figure for `C[C@H](NS(=O)(=O)c1cc2cc(F)ccc2o1)C(=O)NCc1cc(OC(F)(F)F)ccc1F` [Example 73, (2S)-2-[(5-fluorobenzofuran-2-yl)sulfonylamino]-N-[[2-fluoro-5-(trifluoromethoxy)phenyl]methyl]-propanamide] is 160 nM; for `O=C(NCc1ccc2occc2c1)[C@@H]1CCCN1S(=O)(=O)c1cc2cc(F)ccc2o1` [Example 74, (2S)-N-(benzofuran-5-ylmethyl)-1-(5-fluorobenzofuran-2-yl)sulfonyl-pyrrolidine-2-carboxamide] it is 110 nM. With `O=C(NCc1ccc(-c2ccccc2)cc1)[C@@H]1CCCN1S(=O)(=O)c1cc2cc(F)ccc2o1` [Example 76, (2S)-1-(5-fluorobenzofuran-2-yl)sulfonyl-N-[(4-phenylphenyl)methyl]pyrrolidine-2-carboxamide], the IC50 came to 47 nM.

Regarding `O=C(NCc1cccc(-c2ccccc2)c1)[C@@H]1CCCN1S(=O)(=O)c1cc2cc(F)ccc2o1` [Example 77, (2S)-1-(5-fluorobenzofuran-2-yl)sulfonyl-N-[(3-phenylphenyl)methyl]pyrrolidine-2-carboxamide], the IC50 is 15 nM. As to `O=C(NCc1ccccc1-c1ccccc1)[C@@H]1CCCN1S(=O)(=O)c1cc2cc(F)ccc2o1` [Example 78, (2S)-1-(5-fluorobenzofuran-2-yl)sulfonyl-N-[(2-phenylphenyl)methyl]pyrrolidine-2-carboxamide], the IC50 was found to be 130 nM. The same measure for `O=C(NCc1cccc(-c2ccc(C(F)(F)F)cn2)c1)[C@@H]1CCCN1S(=O)(=O)c1cc2ccccc2o1` [Example 80, (2S)-1-(benzofuran-2-ylsulfonyl)-N-[[3-[5-(trifluoromethyl)-2-pyridyl]phenyl]methyl]pyrrolidine-2-carboxamide]: 1.2 nM; for `O=C(NCc1cc(-c2ccc(C(F)(F)F)cc2)ncn1)[C@@H]1CCCN1S(=O)(=O)c1cc2ccccc2o1` [Example 84, (2S)-1-(benzofuran-2-ylsulfonyl)-N-[[6-[4-(trifluoromethyl)phenyl]pyrimidin-4-yl]methyl]pyrrolidine-2-carboxamide]: 1.2 nM. For `O=C(NCc1cncc(-c2ccc(C(F)(F)F)nc2)c1)[C@@H]1CCCN1S(=O)(=O)c1cc2ccccc2o1` [Example 86, (2S)-1-(benzofuran-2-ylsulfonyl)-N-[[5-[6-(trifluoromethyl)-3-pyridyl]-3-pyridyl]methyl]pyrrolidine-2-carboxamide], the IC50 stood at 20 nM. Regarding `O=C(NCc1cccc(-c2ccc(C(F)(F)F)nc2)c1)[C@@H]1CCCN1S(=O)(=O)c1cc2cc(F)ccc2o1` [Example 88, (2S)-1-(5-fluorobenzofuran-2-yl)sulfonyl-N-[[3-[6-(trifluoromethyl)-3-pyridyl]phenyl]methyl]pyrrolidine-2-carboxamide], the IC50 came out at 0.41 nM. The figure for `O=C(NCc1cccc(-c2ccc(C(F)(F)F)cn2)c1)[C@@H]1CCCN1S(=O)(=O)c1cc2cc(F)ccc2o1` [Example 89, (2S)-1-(5-fluorobenzofuran-2-yl)sulfonyl-N-[[3-[5-(trifluoromethyl)-2-pyridyl]phenyl]methyl]pyrrolidine-2-carboxamide] is 0.38 nM; for `O=C(NCc1cc(-c2ccc(C(F)(F)F)cc2)ncn1)[C@@H]1CCCN1S(=O)(=O)c1cc2cc(F)ccc2o1` [Example 90, (2S)-1-(5-fluorobenzofuran-2-yl)sulfonyl-N-[[6-[4-(trifluoromethyl)phenyl]pyrimidin-4-yl]methyl]pyrrolidine-2-carboxamide] it is 0.84 nM. As to `O=C(NCc1cccc(-c2ccc(C(F)(F)F)nc2)c1)[C@@H]1CCCN1S(=O)(=O)c1cc2c(F)cccc2o1` [Example 92, (2S)-1-(4-fluorobenzofuran-2-yl)sulfonyl-N-[[3-[6-(trifluoromethyl)-3-pyridyl]phenyl]methyl]pyrrolidine-2-carboxamide], the IC50 was determined as 2.2 nM. The figure for `O=C(NCc1cccc(-c2ccc(C(F)(F)F)nc2)c1)[C@@H]1[C@@H](O)CCN1S(=O)(=O)c1cc2cc(F)ccc2o1` [Example 93, (2S,3S)-1-(5-fluorobenzofuran-2-yl)sulfonyl-3-hydroxy-N-[[3-[6-(trifluoromethyl)-3-pyridyl]phenyl]methyl]pyrrolidine-2-carboxamide] is 23 nM; for `O=C(NCc1cccc(-c2ccc(C(F)(F)F)cn2)c1)[C@@H]1[C@@H](O)CCN1S(=O)(=O)c1cc2cc(F)ccc2o1` [Example 94, (2S,3S)-1-(5-fluorobenzofuran-2-yl)sulfonyl-3-hydroxy-N-[[3-[5-(trifluoromethyl)-2-pyridyl]phenyl]methyl]pyrrolidine-2-carboxamide] it is 11 nM; for `O=C(NCc1ccnc(-c2ccc(C(F)(F)F)cc2)c1)[C@@H]1[C@@H](O)CCN1S(=O)(=O)c1cc2cc(F)ccc2o1` [Example 95, (2S,3S)-1-(5-fluorobenzofuran-2-yl)sulfonyl-3-hydroxy-N-[[2-[4-(trifluoromethyl)phenyl]-4-pyridyl]methyl]pyrrolidine-2-carboxamide] it is 5.4 nM. The figure for `CN(C)c1cc(-c2cccc(CNC(=O)[C@@H]3CCCN3S(=O)(=O)c3cc4cc(F)ccc4o3)c2)ccn1` [Example 96, (2S)-N-[[3-[2-(dimethylamino)-4-pyridyl]phenyl]methyl]-1-(5-fluorobenzofuran-2-yl)sulfonyl-pyrrolidine-2-carboxamide] is 250 nM. Turning to `O=C(NCc1ccnc(-c2ccc(C(F)(F)F)cc2)c1)[C@@H]1CCCN1S(=O)(=O)c1cc2c(F)cccc2o1` [Example 97, (2S)-1-(4-fluorobenzofuran-2-yl)sulfonyl-N-[[2-[4-(trifluoromethyl)phenyl]-4-pyridyl]methyl]pyrrolidine-2-carboxamide], the IC50 is 4 nM. The same measure for `O=C(NCc1ccnc(-c2ccc(C(F)(F)F)cc2)c1)[C@@H]1C=CCN1S(=O)(=O)c1cc2cc(F)ccc2o1` [Example 98, (2S)-1-(5-fluorobenzofuran-2-yl)sulfonyl-N-[[2-[4-(trifluoromethyl)phenyl]-4-pyridyl]methyl]-2,5-dihydropyrrole-2-carboxamide]: 0.76 nM; for `O=C(NCc1ccnc(-c2ccc(C(F)(F)F)cc2)c1)[C@@H]1CC(F)(F)CN1S(=O)(=O)c1cc2cc(F)ccc2o1` [Example 99, (2S)-4,4-difluoro-1-(5-fluorobenzofuran-2-yl)sulfonyl-N-[[2-[4-(trifluoromethyl)phenyl]-4-pyridyl]methyl]pyrrolidine-2-carboxamide]: 13 nM; for `O=C(NCc1cccc(-c2ccc(C(F)(F)F)nc2)c1)[C@@H]1CCN1S(=O)(=O)c1cc2cc(F)ccc2o1` [Example 100, (2S)-1-(5-fluorobenzofuran-2-yl)sulfonyl-N-[[3-[6-(trifluoromethyl)-3-pyridyl]phenyl]methyl]azetidine-2-carboxamide]: 1.6 nM. The figure for `C[C@H](NS(=O)(=O)c1cc2ccccc2o1)C(=O)NCc1cccc(-c2ccc(C(F)(F)F)nc2)c1` [Example 101, (2S)-2-(benzofuran-2-ylsulfonylamino)-N-[[3-[6-(trifluoromethyl)-3-pyridyl]phenyl]methyl]propanamide] is 27 nM; for `C[C@H](NS(=O)(=O)c1cc2ccccc2o1)C(=O)NCc1cccc(-c2ccc(C(F)(F)F)cn2)c1` [Example 102, (2S)-2-(benzofuran-2-ylsulfonylamino)-N-[[3-[5-(trifluoromethyl)-2-pyridyl]phenyl]methyl]propanamide] it is 28 nM. For the compound `C[C@H](NS(=O)(=O)c1cc2ccccc2o1)C(=O)NCc1ccnc(-c2ccc(C(F)(F)F)cc2)c1` [Example 103, (2S)-2-(benzofuran-2-ylsulfonylamino)-N-[[2-[4-(trifluoromethyl)phenyl]-4-pyridyl]methyl]propanamide], the IC50 stood at 56 nM.

In the case of `C[C@H](NS(=O)(=O)c1cc2ccccc2o1)C(=O)NCc1cc(-c2ccc(C(F)(F)F)cc2)ncn1` [Example 104, (2S)-2-(benzofuran-2-ylsulfonylamino)-N-[[6-[4-(trifluoromethyl)phenyl]pyrimidin-4-yl]methyl]propanamide], the IC50 came out at 14 nM. The figure for `C[C@H](NS(=O)(=O)c1cc2ccccc2o1)C(=O)NCc1cc(-c2ccc(C(F)(F)F)nc2)ccn1` [Example 105, (2S)-2-(benzofuran-2-ylsulfonylamino)-N-[[4-[6-(trifluoromethyl)-3-pyridyl]-2-pyridyl]methyl]propanamide] is 68 nM; for `C[C@H](NS(=O)(=O)c1cc2cc(F)ccc2o1)C(=O)NCc1cccc(-c2ccc(C(F)(F)F)nc2)c1` [Example 106, (2S)-2-[(5-fluorobenzofuran-2-yl)sulfonylamino]-N-[[3-[6-(trifluoromethyl)-3-pyridyl]phenyl]methyl]propanamide] it is 10 nM.

In the case of `C[C@H](NS(=O)(=O)c1cc2cc(F)ccc2o1)C(=O)NCc1cccc(-c2ccc(C(F)(F)F)cn2)c1` [Example 107, (2S)-2-[(5-fluorobenzofuran-2-yl)sulfonylamino]-N-[[3-[5-(trifluoromethyl)-2-pyridyl]phenyl]methyl]propanamide], the IC50 came out at 6.9 nM.

Take `C[C@H](NS(=O)(=O)c1cc2cc(F)ccc2o1)C(=O)NCc1ccnc(-c2ccc(C(F)(F)F)cc2)c1` [Example 108, (2S)-2-[(5-fluorobenzofuran-2-yl)sulfonylamino]-N-[[2-[4-(trifluoromethyl)phenyl]-4-pyridyl]methyl]propanamide]: the IC50 stood at 13 nM.
